Converted amounts (≈) assume the structure as drawn.
Tests used:
Type in all cases: functional
Staphylococcus aureus [1] = test: Antibacterial activity against erythromycin, methicillin-resistant Staphylococcus aureus A333 by broth microdilution method
Haemophilus influenzae [2] = test: Antibacterial activity against ampicillin-resistant Haemophilus influenzae 3300 by broth microdilution method
Staphylococcus aureus [3] = test: Antibacterial activity against erythromycin-resistant, methicillin-susceptible Staphylococcus aureus A265 by broth microdilution method
Streptococcus pneumoniae [4] = test: Antibacterial activity against erythromycin-susceptible Streptococcus pneumoniae ATCC 49619 by broth microdilution method
Haemophilus influenzae [5] = test: Antibacterial activity against ampicillin-susceptible Haemophilus influenzae ATCC 49247 by broth microdilution method
Streptococcus pneumoniae [6] = test: Antibacterial activity against erythromycin-resistant Streptococcus pneumoniae 3469 by broth microdilution method
Staphylococcus aureus [7] = test: Antibacterial activity against erythromycin-susceptible Staphylococcus aureus ATCC 25923 by broth microdilution method

Compound | MIC (Staphylococcus aureus [1]) [µg/mL] | MIC (Haemophilus influenzae [2]) [µg/mL] | MIC (Staphylococcus aureus [3]) [µg/mL] | MIC (Streptococcus pneumoniae [4]) [µg/mL] | MIC (Haemophilus influenzae [5]) [µg/mL] | MIC (Streptococcus pneumoniae [6]) [µg/mL] | MIC (Staphylococcus aureus [7]) [µg/mL]
CC[C@H]1OC(=O)[C@H](C)[C@@H](OC(=O)NCCCO)[C@H](C)[C@@H](O[C@@H]2O[C@H](C)C[C@H](N(C)C)[C@H]2O)[C@](C)(OC)C[C@@H](C)C(=O)[C@@H](C)[C@@H](OC)[C@]1(C)O | > 64 | 32 (≈ 45.4 µM) | 16 (≈ 22.7 µM) | 1 (≈ 1.42 µM) | 32 (≈ 45.4 µM) | 8 (≈ 11.3 µM) | 4 (≈ 5.67 µM)
CC[C@H]1OC(=O)[C@H](C)[C@@H](OC(=O)NCCc2ccccc2)[C@H](C)[C@@H](O[C@@H]2O[C@H](C)C[C@H](N(C)C)[C@H]2O)[C@](C)(OC)C[C@@H](C)C(=O)[C@@H](C)[C@@H](OC)[C@]1(C)O | > 64 | 4 (≈ 5.33 µM) | 8 (≈ 10.7 µM) | 4 (≈ 5.33 µM) | 4 (≈ 5.33 µM) | 64 (≈ 85.2 µM) | 8 (≈ 10.7 µM)
CC[C@H]1OC(=O)[C@H](C)[C@@H](O[C@H]2C[C@@](C)(OC)[C@@H](O)[C@H](C)O2)[C@H](C)[C@@H](O[C@@H]2O[C@H](C)C[C@H](N(C)C)[C@H]2O)[C@](C)(O)C[C@@H](C)CN(C)[C@H](C)[C@@H](O)[C@]1(C)O [AZITHROMYCIN] | > 64 | 4 (≈ 5.34 µM) | 8 (≈ 10.7 µM) | 0.5 (≈ 0.668 µM) | 4 (≈ 5.34 µM) | 4 (≈ 5.34 µM) | 0.5 (≈ 0.668 µM)
CC[C@H]1OC(=O)[C@H](C)[C@@H](OC(=O)NCc2ccc(C)cc2)[C@H](C)[C@@H](O[C@@H]2O[C@H](C)C[C@H](N(C)C)[C@H]2O)[C@](C)(OC)C[C@@H](C)C(=O)[C@@H](C)[C@@H](OC)[C@]1(C)O | 64 (≈ 85.2 µM) | 4 (≈ 5.33 µM) | 0.125 (≈ 0.166 µM) | 0.125 (≈ 0.166 µM) | 4 (≈ 5.33 µM) | 0.25 (≈ 0.333 µM) | 0.25 (≈ 0.333 µM)
CC[C@H]1OC(=O)[C@H](C)[C@@H](OC(=O)NCCc2ccccc2Br)[C@H](C)[C@@H](O[C@@H]2O[C@H](C)C[C@H](N(C)C)[C@H]2O)[C@](C)(OC)C[C@@H](C)C(=O)[C@@H](C)[C@@H](OC)[C@]1(C)O | 64 (≈ 77.1 µM) | 4 (≈ 4.82 µM) | 4 (≈ 4.82 µM) | 0.125 (≈ 0.151 µM) | 8 (≈ 9.64 µM) | 8 (≈ 9.64 µM) | 4 (≈ 4.82 µM)
CC[C@H]1OC(=O)[C@H](C)[C@@H](OC(=O)NCc2ccc(OC)cc2)[C@H](C)[C@@H](O[C@@H]2O[C@H](C)C[C@H](N(C)C)[C@H]2O)[C@](C)(OC)C[C@@H](C)C(=O)[C@@H](C)[C@@H](OC)[C@]1(C)O | > 64 | 0.5 (≈ 0.652 µM) | 0.125 (≈ 0.163 µM) | 0.5 (≈ 0.652 µM) | 1 (≈ 1.3 µM) | 0.5 (≈ 0.652 µM) | 0.125 (≈ 0.163 µM)
CC[C@H]1OC(=O)[C@H](C)[C@@H](OC(=O)Nc2nccs2)[C@H](C)[C@@H](O[C@@H]2O[C@H](C)C[C@H](N(C)C)[C@H]2O)[C@](C)(OC)C[C@@H](C)C(=O)[C@@H](C)[C@@H](OC)[C@]1(C)O | > 64 | 32 (≈ 43.8 µM) | 32 (≈ 43.8 µM) | 0.125 (≈ 0.171 µM) | 32 (≈ 43.8 µM) | 8 (≈ 11 µM) | 32 (≈ 43.8 µM)
CC[C@H]1OC(=O)[C@H](C)[C@@H](OC(=O)NCc2ccc(F)cc2)[C@H](C)[C@@H](O[C@@H]2O[C@H](C)C[C@H](N(C)C)[C@H]2O)[C@](C)(OC)C[C@@H](C)C(=O)[C@@H](C)[C@@H](OC)[C@]1(C)O | > 64 | 4 (≈ 5.3 µM) | 0.125 (≈ 0.166 µM) | 0.125 (≈ 0.166 µM) | 4 (≈ 5.3 µM) | 0.125 (≈ 0.166 µM) | 4 (≈ 5.3 µM)
CCCNC(=O)O[C@H]1[C@H](C)[C@@H](O[C@@H]2O[C@H](C)C[C@H](N(C)C)[C@H]2O)[C@](C)(OC)C[C@@H](C)C(=O)[C@@H](C)[C@@H](OC)[C@](C)(O)[C@@H](CC)OC(=O)[C@@H]1C | > 64 | 64 (≈ 92.9 µM) | 1 (≈ 1.45 µM) | 0.125 (≈ 0.181 µM) | > 64 | 0.125 (≈ 0.181 µM) | 2 (≈ 2.9 µM)
CC[C@H]1OC(=O)[C@H](C)[C@@H](OC(=O)NCCc2ccccc2Cl)[C@H](C)[C@@H](O[C@@H]2O[C@H](C)C[C@H](N(C)C)[C@H]2O)[C@](C)(OC)C[C@@H](C)C(=O)[C@@H](C)[C@@H](OC)[C@]1(C)O | > 64 | 16 (≈ 20.4 µM) | 1 (≈ 1.27 µM) | 0.125 (≈ 0.159 µM) | 8 (≈ 10.2 µM) | 0.125 (≈ 0.159 µM) | 4 (≈ 5.09 µM)
CC[C@H]1OC(=O)[C@H](C)[C@@H](OC(=O)NCCc2ccc(OC)cc2)[C@H](C)[C@@H](O[C@@H]2O[C@H](C)C[C@H](N(C)C)[C@H]2O)[C@](C)(OC)C[C@@H](C)C(=O)[C@@H](C)[C@@H](OC)[C@]1(C)O | > 64 | 16 (≈ 20.5 µM) | 8 (≈ 10.2 µM) | 0.125 (≈ 0.16 µM) | 16 (≈ 20.5 µM) | 0.125 (≈ 0.16 µM) | 4 (≈ 5.12 µM)
CCOCCCNC(=O)O[C@H]1[C@H](C)[C@@H](O[C@@H]2O[C@H](C)C[C@H](N(C)C)[C@H]2O)[C@](C)(OC)C[C@@H](C)C(=O)[C@@H](C)[C@@H](OC)[C@](C)(O)[C@@H](CC)OC(=O)[C@@H]1C | > 64 | 8 (≈ 10.9 µM) | 8 (≈ 10.9 µM) | 0.125 (≈ 0.171 µM) | 8 (≈ 10.9 µM) | 0.125 (≈ 0.171 µM) | 8 (≈ 10.9 µM)

— ChEMBL document CHEMBL1240419, “Synthesis and antibacterial activity of 3-O-carbamoyl derivatives of 6,11-di-O-methylerythromycin A: a novel class of acylides” (2010)
